Measurements from patent publication US20250228855A1, “PYRAZINAMIDE COMPOUNDS” (The General Hospital Corporation, priority 2022, published 2025).
pEC50, pKd: −log10 of the molar value. Where a name gives a salt, the structure may show the parent alone. Read-outs that look alike come from different tables or passages of the source. Marks after values point to notes of the source that are not given here.

Columns and labels:
PfcProRS = PfcProRS (Plasmodium falciparum, UniProt Q8I5R7); assay: TR-FRET ligand displacement assay with tracer MAT379, PfcProRS; assay type: binding; settings: for pKd: absence of proline, read-out: KD for PfcProRS
P. falciparum Dd2-2D4 = assay: P. falciparum asexual blood stage growth assay, wild-type Dd2-2D4; settings: for EC50 / pEC50: Plasmodium falciparum; for EC50: DD2, 72 h, read-out: Dd2 (EC50 [nM]) wt; for pEC50: DD2, read-out: EC50 against Dd2-2D4 wildtype parasites
Description: (§1) Asexual blood stage (ABS) P. falciparum parasites were treated with test compounds at varying concentrations for 72 h, followed by quantification of parasite growth by SYBR Green staining.
(§2) P. falciparum Asexual Blood Stage Growth Assay: This assay was performed as previously described.

[1] = system: halofuginone-induced (HFG-induced) P. falciparum; assay: P. falciparum asexual blood stage growth assay, halofuginone-induced parasites; settings: Plasmodium falciparum; for EC50: DD2, 72 h, read-out: Dd2 (EC50 [nM]) Halofuginone-induced; for pEC50: read-out: EC50 in halofuginone-induced parasites
Description: as §1, §2

HsProRS = biological target: T1, HsProRS (Homo sapiens, UniProt P07814); assay: TR-FRET ligand displacement assay with tracer MAT379, HsProRS; assay type: binding
T1 sequence (P07814 1007-1512 limits assumed): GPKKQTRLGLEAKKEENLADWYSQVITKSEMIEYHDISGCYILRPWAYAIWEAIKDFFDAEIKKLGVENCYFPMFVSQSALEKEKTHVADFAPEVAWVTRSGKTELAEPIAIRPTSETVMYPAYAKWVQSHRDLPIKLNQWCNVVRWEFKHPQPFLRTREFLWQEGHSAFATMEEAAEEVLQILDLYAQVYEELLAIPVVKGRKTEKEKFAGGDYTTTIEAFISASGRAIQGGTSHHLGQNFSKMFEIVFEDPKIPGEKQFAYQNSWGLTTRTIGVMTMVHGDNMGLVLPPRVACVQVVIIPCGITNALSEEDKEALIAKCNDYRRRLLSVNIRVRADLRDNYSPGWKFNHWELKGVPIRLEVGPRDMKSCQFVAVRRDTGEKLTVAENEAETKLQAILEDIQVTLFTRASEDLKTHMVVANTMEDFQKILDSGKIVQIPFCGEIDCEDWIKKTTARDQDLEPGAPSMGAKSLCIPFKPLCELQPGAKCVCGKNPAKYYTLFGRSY

[2] = PfcProRS (KD [nM]) +proline, 100 μM Pro
[3] = no proline, no ATP, read-out: PfcProRS (KD [nM]) −
[4] = no proline, no ATP, read-out: HsProRS (KD [nM]) −
[5] = read-out: HsProRS (KD [nM]) +proline, 100 μM Pro
[6] = KD for HsProRS in presence of 100 μM proline, 100 μM proline

Chain of PfcProRS (Q8I5R7 whole entry): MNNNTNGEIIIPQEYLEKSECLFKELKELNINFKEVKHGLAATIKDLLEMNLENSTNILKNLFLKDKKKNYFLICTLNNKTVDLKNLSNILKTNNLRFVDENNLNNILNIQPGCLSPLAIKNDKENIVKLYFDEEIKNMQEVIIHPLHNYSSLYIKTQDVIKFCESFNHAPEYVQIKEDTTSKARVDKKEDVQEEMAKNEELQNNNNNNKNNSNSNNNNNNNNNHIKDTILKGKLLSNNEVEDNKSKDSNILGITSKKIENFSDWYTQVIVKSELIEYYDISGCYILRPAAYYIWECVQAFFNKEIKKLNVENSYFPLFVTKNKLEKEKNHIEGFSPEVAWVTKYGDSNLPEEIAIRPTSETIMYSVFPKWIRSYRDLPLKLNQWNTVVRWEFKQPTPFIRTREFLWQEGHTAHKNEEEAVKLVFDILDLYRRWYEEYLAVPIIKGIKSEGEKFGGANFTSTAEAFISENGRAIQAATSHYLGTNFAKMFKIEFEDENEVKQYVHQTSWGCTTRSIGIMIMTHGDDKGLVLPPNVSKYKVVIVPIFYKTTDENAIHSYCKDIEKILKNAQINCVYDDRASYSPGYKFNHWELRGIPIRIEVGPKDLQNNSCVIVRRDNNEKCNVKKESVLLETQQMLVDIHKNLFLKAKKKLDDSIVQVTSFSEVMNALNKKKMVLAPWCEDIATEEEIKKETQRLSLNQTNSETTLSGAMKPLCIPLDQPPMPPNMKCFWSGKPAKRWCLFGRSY

CC(C)(C)OC(=O)N1CCC[C@H](OC(=O)NS(=O)(=O)N2CCN(C(=O)Nc3nccnc3C(=O)NC3Cc4ccccc4C3)CC2)[C@H]1CC(=O)Cn1cnc2cc(Br)c(Cl)cc2c1=O (relative stereo) [Compound 37, tert-butyl trans-2-(3-(7-bromo-6-chloro-4-oxoquinazolin-3(4H)-yl)-2-oxopropyl)-3-((((4-((3-((2,3-dihydro-1H-inden-2-yl)carbamoyl)pyrazin-2-yl)carbamoyl)piperazin-1-yl)sulfonyl)carbamoyl)oxy)piperidine-1-carboxylate]
Kd (PfcProRS; [2]): 175 nM | Kd (PfcProRS; [3]): 246 nM | percent growth at 10 μM (Dd2 wt) (P. falciparum Dd2-2D4; 10 μM, compound had <50% growth inhibition): 59% † | EC50 [1]: 7150 nM

O=C(NC1Cc2ccccc2C1)c1nccnc1NC(=O)C1CCCCC1 [Compound 2, 3-(cyclohexanecarboxamido)-N-(2,3-dihydro-1H-inden-2-yl)pyrazine-2-carboxamide, reference compound]
Kd (PfcProRS; PfcProRS (KD [nM]) +ATP, 500 μM ATP): 291 nM | Kd (PfcProRS; [2]): 7.17 nM | Kd (PfcProRS; [3]): 437 nM | Kd (HsProRS; [4]): 371 nM | Kd (HsProRS; read-out: HsProRS (KD [nM]) +ATP, +ATP): 954 nM | Kd (HsProRS; [5]): 2.16 nM | EC50 (P. falciparum Dd2-2D4): 595 nM | pEC50 (P. falciparum Dd2-2D4): 6.23 | EC50 [1]: 1250 nM | pEC50 [1]: 5.90

CC1(C(=O)Nc2nccnc2C(=O)NC2Cc3ccccc3C2)CCCCC1 [Compound 4, N-(2,3-dihydro-1H-inden-2-yl)-3-(1-methylcyclohexane-1-carboxamido)pyrazine-2-carboxamide]
Kd (PfcProRS; [2]): 3.42 nM | Kd (PfcProRS; [3]): 275 nM | Kd (HsProRS; [4]): 221 nM | Kd (HsProRS; [5]): 2.55 nM | EC50 (P. falciparum Dd2-2D4): 180 nM | pEC50 (P. falciparum Dd2-2D4): 6.74 | EC50 [1]: 540 nM | pEC50 [1]: 6.27

CC(C)(C)OC(=O)N[C@H]1CC[C@@H](C(=O)Nc2nccnc2C(=O)NC2Cc3ccccc3C2)CC1 [Compound 6, tert-butyl ((1s,4s)-4-((3-((2,3-dihydro-1H-inden-2-yl)carbamoyl)pyrazin-2-yl)carbamoyl)cyclohexyl)carbamate]
Kd (PfcProRS; [2]): 26.3 nM | Kd (PfcProRS; [3]): 31.5 nM | Kd (HsProRS; [4]): 56.8 nM | Kd (HsProRS; [5]): 82.7 nM | EC50 (P. falciparum Dd2-2D4): 508 nM | EC50 [1]: 7930 nM

CC(C)(C)OC(=O)NCC1CCN(C(=O)Nc2nccnc2C(=O)NC2Cc3ccccc3C2)CC1 [Compound 9, tert-butyl ((1-((3-((2,3-dihydro-1H-inden-2-yl)carbamoyl)pyrazin-2-yl)carbamoyl)piperidin-4-yl)methyl)carbamate]
Kd (PfcProRS; [2]): 353 nM | Kd (PfcProRS; [3]): 382 nM | pKd (HsProRS): < 5.29 | Kd (HsProRS; [4]): 2510 nM | EC50 (P. falciparum Dd2-2D4): 6570 nM | EC50 [1]: 7530 nM

O=C(NC1Cc2ccccc2C1)c1nccnc1NC(=O)N1CCC(CCO)CC1 [Compound 12, N-(2,3-dihydro-1H-inden-2-yl)-3-(4-(2-hydroxyethyl)piperidine-1-carboxamido)pyrazine-2-carboxamide]
Kd (PfcProRS; [2]): 339 nM | Kd (PfcProRS; [3]): 515 nM | Kd (HsProRS; [4]): 687 nM | Kd (HsProRS; [5]): 150 nM | EC50 (P. falciparum Dd2-2D4): 153 nM | EC50 [1]: 6350 nM

O=C(NC1Cc2ccccc2C1)c1nccnc1NC(=O)C1(O)CCCCC1 [Compound 15, N-(2,3-dihydro-1H-inden-2-yl)-3-(1-hydroxycyclohexane-1-carboxamido)pyrazine-2-carboxamide]
Kd (HsProRS; [4]): 2700 nM | Kd (HsProRS; [5]): 21.8 nM | EC50 (P. falciparum Dd2-2D4): 1500 nM | EC50 [1]: 3510 nM

C[C@@H]1CCC[C@H](C)N1C(=O)Nc1nccnc1C(=O)NC1Cc2ccccc2C1 [Compound 19, N-(2,3-dihydro-1H-inden-2-yl)-3-(cis-2,6-dimethylpiperidine-1-carboxamido)pyrazine-2-carboxamide]
Kd (PfcProRS; [2]): 1180 nM | Kd (PfcProRS; [3]): > 2860 nM | Kd (HsProRS; [4]): > 8720 nM | Kd (HsProRS; [5]): 1320 nM | EC50 (P. falciparum Dd2-2D4): > 10000 nM | EC50 [1]: 8590 nM

O=C(NC1Cc2ccccc2C1)c1nccnc1NC(=O)C1CCC1 [Compound 20, 3-(cyclobutanecarboxamido)-N-(2,3-dihydro-1H-inden-2-yl)pyrazine-2-carboxamide]
Kd (PfcProRS; [2]): 100 nM | Kd (PfcProRS; [3]): 1260 nM | Kd (HsProRS; [4]): 738 nM | Kd (HsProRS; [5]): 13.2 nM | EC50 (P. falciparum Dd2-2D4): 3740 nM | EC50 [1]: 6010 nM

CC(C)(C)OC(=O)NCCCCCC(=O)NC1CCN(C(=O)Nc2nccnc2C(=O)NC2Cc3ccccc3C2)CC1 [Compound 41, tert-butyl (6-((1-((3-((2,3-dihydro-1H-inden-2-yl)carbamoyl)pyrazin-2-yl)carbamoyl)piperidin-4-yl)amino)-6-oxohexyl)carbamate]
Kd (PfcProRS; [2]): 182 nM | Kd (PfcProRS; [3]): 227 nM | Kd (HsProRS; [4]): 139 nM | Kd (HsProRS; [5]): 561 nM | EC50 (P. falciparum Dd2-2D4): 2110 nM | EC50 [1]: 6910 nM

NCCCCCC(=O)NC1CCN(C(=O)Nc2nccnc2C(=O)NC2Cc3ccccc3C2)CC1 [Compound 42, 3-(4-(6-aminohexanamido)piperidine-1-carboxamido)-N-(2,3-dihydro-1H-inden-2-yl)pyrazine-2-carboxamide dihydrochloride]
Kd (PfcProRS; [2]): 295 nM | Kd (PfcProRS; [3]): 433 nM | Kd (HsProRS; [5]): 780 nM | Kd (HsProRS; read-out: HsProRS (KD [nM]) −): 674 nM | EC50 (P. falciparum Dd2-2D4): 3120 nM | EC50 [1]: 9080 nM

CC(C)(C)OC(=O)NCCCCCC(=O)NCC1CCN(C(=O)Nc2nccnc2C(=O)NC2Cc3ccccc3C2)CC1 [Compound 43, tert-butyl (6-(((1-((3-((2,3-dihydro-1H-inden-2-yl)carbamoyl)pyrazin-2-yl)carbamoyl)piperidin-4-yl)methyl)amino)-6-oxohexyl)carbamate]
Kd (PfcProRS; [2]): 320 nM | Kd (PfcProRS; [3]): 375 nM | Kd (HsProRS; [4]): 611 nM | Kd (HsProRS; [5]): 2280 nM | EC50 (P. falciparum Dd2-2D4): 3330 nM | EC50 [1]: 5090 nM

NCCCCCC(=O)NCC1CCN(C(=O)Nc2nccnc2C(=O)NC2Cc3ccccc3C2)CC1 [Compound 44, 3-(4-((6-aminohexanamido)methyl)piperidine-1-carboxamido)-N-(2,3-dihydro-1H-inden-2-yl)pyrazine-2-carboxamide dihydrochloride]
Kd (PfcProRS; [2]): 270 nM | Kd (PfcProRS; [3]): 321 nM | Kd (HsProRS; [5]): 330 nM | Kd (HsProRS; read-out: HsProRS (KD [nM]) −): 1570 nM | EC50 (P. falciparum Dd2-2D4): > 10000 nM | EC50 [1]: 8910 nM

O=C(NS(=O)(=O)N1CCN(C(=O)Nc2nccnc2C(=O)NC2Cc3ccccc3C2)CC1)O[C@H]1CCCNC1 [MAT445, (S)-piperidin-3-yl ((4-((3-((2,3-dihydro-1H-inden-2-yl)carbamoyl)pyrazin-2-yl)carbamoyl)piperazin-1-yl)sulfonyl)carbamate]
pKd (PfcProRS): 5.95 | EC50 (P. falciparum Dd2-2D4): 1160 nM | pEC50 (P. falciparum Dd2-2D4): 5.94 | EC50 [1]: 7620 nM | pEC50 [1]: < 5.00

O=C(NS(=O)(=O)N1CCN(C(=O)Nc2nccnc2C(=O)NC2Cc3ccccc3C2)CC1)O[C@@H]1CCCNC1 [MAT447, (R)-piperidin-3-yl ((4-((3-((2,3-dihydro-1H-inden-2-yl)carbamoyl)pyrazin-2-yl)carbamoyl)piperazin-1-yl)sulfonyl)carbamate]
pKd (PfcProRS): 5.61 | EC50 (P. falciparum Dd2-2D4): 6250 nM | pEC50 (P. falciparum Dd2-2D4): 5.20 | EC50 [1]: 6990 nM | pEC50 [1]: < 5.00

O=C(NS(=O)(=O)N1CCN(C(=O)Nc2nccnc2C(=O)NC2Cc3ccccc3C2)CC1)OC[C@@H]1CCCN1 [MAT457, (S)-pyrrolidin-2-ylmethyl ((4-((3-((2,3-dihydro-1H-inden-2-yl)carbamoyl)pyrazin-2-yl)carbamoyl)piperazin-1-yl)sulfonyl)carbamate hydrochloride]
Kd (PfcProRS; [2]): 118 nM | pKd (PfcProRS): 6.82 | pKd (HsProRS; KD for HsProRS): 8.01 | pKd (HsProRS; [6]): 7.79 | EC50 (P. falciparum Dd2-2D4): 968 nM | pEC50 (P. falciparum Dd2-2D4): 6.01 | EC50 [1]: 6570 nM | pEC50 [1]: < 5.00

O=C(NS(=O)(=O)N1CCN(C(=O)Nc2nccnc2C(=O)NC2Cc3ccccc3C2)CC1)OC[C@H]1CCCN1 [MAT459, (R)-pyrrolidin-2-ylmethyl ((4-((3-((2,3-dihydro-1H-inden-2-yl)carbamoyl)pyrazin-2-yl)carbamoyl)piperazin-1-yl)sulfonyl)carbamate]
Kd (PfcProRS; [2]): 552 nM | pKd (PfcProRS): 6.13 | pKd (HsProRS; [6]): 6.61 | pKd (HsProRS; absence of proline, read-out: KD for HsProRS): 6.98 | EC50 (P. falciparum Dd2-2D4): 4620 nM | pEC50 (P. falciparum Dd2-2D4): 5.34 | EC50 [1]: 7080 nM | pEC50 [1]: < 5.00

O=C(CCCCCNC(=S)Nc1ccccc1)NC1CCN(C(=O)Nc2nccnc2C(=O)NC2Cc3ccccc3C2)CC1 [MAT482]
Kd (PfcProRS; [3]): 78.3 nM | Kd (PfcProRS; read-out: PfcProRS (KD [nM]) +proline, 100 μM Pro): 61.6 nM | Kd (HsProRS; [4]): 516 nM | Kd (HsProRS; [5]): 1360 nM | EC50 (P. falciparum Dd2-2D4): 2720 nM | EC50 [1]: 5540 nM

Nc1ncnc2c1ncn2[C@@H]1O[C@H](COS(=O)(=O)NC(=O)[C@@H]2CCCN2)[C@@H](O)[C@H]1O [ProSA (25), 5′-O—[N-(L-Prolyl)-sulfamoyl]adenosine, reference compound]
EC50 (P. falciparum Dd2-2D4): 151 nM | EC50 [1]: 137 nM
